Assay results published in publication PMC12563652 (International Journal of Molecular Sciences, 2025).
“Also recorded” adds a separate entry of the source.

Assays:
HepG2 cells = assay: Glucose consumption (Amplex Red assay) in HepG2 cells; type: cell-based, human
Method: The HepG2 human hepatocellular carcinoma cell line (ATCC® HB-8065™) was cultured in DMEM supplemented with 10% FBS, 100 µg/mL streptomycin, and 100 IU/mL penicillin at 37 °C in 5% CO2. Cells were seeded in 96-well plates at a density of 10,000 cells/well and used for experiments 24 h after plating.
Stock solutions of test compounds were prepared at a concentration of 10 mM in dimethyl sulfoxide (DMSO). At least 1 mg of each substance was carefully measured and mixed with the right amount of DMSO. A series of dilutions were made in DMSO and then further diluted in phosphate-buffered saline before being introduced into the cell culture medium. Precipitation or opalescence was assessed prior to application.
The glucose uptake was measured with the Amplex® Red Glucose/Glucose Oxidase Assay Kit from Thermo Fisher Scientific, following the guidelines provided by the maker. Cell culture supernatants were collected and incubated with a reaction mix containing 100 μM Amplex® Red reagent, 0.2 U/mL horseradish peroxidase (HRP), and 1 U/mL glucose oxidase at room temperature for 30 min in the dark. Fluorescence was measured at 530 nm excitation and 590 nm emission using the POLARstar Omega plate reader (BMG Labtech).

HEPG2 cell line = assay: Cell viability assay (PrestoBlue, metabolic function), HepG2; type: cell-based, human; conditions: 24 h, mean
Method: Prior to investigating the biological activity and molecular characteristics of the test compounds in vitro, a comprehensive cytotoxicity screening was performed using HepG2 and 3T3-L1 cell lines. Two complementary assays were applied: one based on the quantification of adenylate kinase release as an indicator of cell membrane damage, and another relying on resazurin reduction to assess cellular metabolic activity. These complementary assays enable sensitive and reliable detection of cytotoxic effects across diverse cell types. This preliminary assessment was carried out to ensure that subsequent functional analyses would not be confounded by nonspecific cytotoxic effects.
Cell viability was measured using PrestoBlue reagent (Thermo Fisher Scientific, Waltham, MA, USA), following the manufacturer’s instructions. After 24 h of compound treatment, PrestoBlue reagent was added to each well at 10% of the remaining medium volume. The plate was incubated at 37 °C for 15 min, and fluorescence was measured using the POLARstar Omega plate reader (excitation 530 nm, emission 580 nm). Results were expressed as a percentage of viable cells relative to the DMSO-treated control.

3T3-L1 adipocytes = assay: Steatosis, HCS LipidTOX imaging in 3T3-L1 adipocytes; type: cell-based, mouse
Method: The 3T3-L1 mouse embryonic fibroblast cell line (ATCC CRL-11605) was cultured according to the standard protocol in Dulbecco’s Modified Eagle Medium (DMEM) supplemented with 10% bovine calf serum, 100 µg/mL streptomycin, and 100 IU/mL penicillin, at 37 °C in a humidified atmosphere containing 5% CO2. Cells were seeded at a density of 10,000 cells/well in collagen type I–coated (10 µg/mL) 96-well plates and allowed to attach for 24 h. Differentiation was initiated by replacing the medium with induction medium composed of DMEM, 0.5 mM 3-isobutyl-1-methylxanthine (IBMX), 1 µM dexamethasone, and 10% fetal bovine serum (FBS). After 48 h (differentiation day 2), the medium was replaced with DMEM supplemented with 10% FBS and 10 µg/mL human recombinant insulin. After an additional 24 h, the medium was replaced with DMEM supplemented with 10% bovine calf serum, 100 µg/mL streptomycin, and 100 IU/mL penicillin. The medium was refreshed every 24 h for 10 consecutive days to allow full differentiation into adipocytes.
Lipid accumulation and phospholipidosis were evaluated using the HCS LipidTOX Phospholipidosis and Steatosis Detection Kit (Thermo Fisher Scientific). Cells were cultured in black, clear-bottom 96-well plates and treated as described. Next, cells were fixed with 4% paraformaldehyde (15 min), washed with PBS, and stained with LipidTOX Green Neutral Lipid Stain (for steatosis) and LipidTOX Red Phospholipidosis Detection Reagent, prepared according to the manufacturer’s instructions. Nuclei were counterstained with Hoechst 33342 (2 µg/mL). Image acquisition and quantitative analysis were performed using High Content Screening (HCS) technology on the ImageXpress XLS system (Molecular Devices). Lipid droplet and phospholipid content were quantified using automated image analysis pipelines.

α1-adrenoceptor = assay: Competitive radioligand binding, [3H]prazosin, rat cerebral cortex; conditions: n.a. = no activity at 10–5 M
Method: The competitive radioligand-binding assay assessed affinity for α1- and α2-adrenoceptors. Experiments were carried out in the rat cerebral cortex. […] The membrane preparation and assay technique followed the previously reported protocol. Radioactivity was measured using the MicroBeta2 scintillation counter (PerkinElmer, Kraków, Poland). The data was adjusted to match a single-site curve-fitting formula using Prism 8 (GraphPad Software, La Jolla, CA, USA), and the Ki values were estimated by means of the Cheng–Prusoff formula.

[1] = tested on: platelet aggregation in rat whole blood; assay: In vitro collagen-induced platelet aggregation in rat whole blood (impedance aggregometry); type: cell-based; conditions: 50–200 µM, collagen 1.6 µg/mL
Method: In vitro platelet aggregation assays were conducted using freshly collected whole blood from rats, utilizing the Multiplate platelet function analyzer (Roche Diagnostics, Mannheim, Germany)—a five-channel device that measures electrical impedance, following methods described previously. Upon stimulation, platelets adhere to and aggregate on dual metal sensors within the test cuvette, causing an increase in electrical resistance, which corresponds to the number of platelets attached to the electrodes.
Blood was collected from the carotid artery of the rat into tubes coated with hirudin (S-Monovette, Sarstedt, Germany). A volume of 300 μL of the anticoagulated blood was mixed with 300 μL of prewarmed isotonic saline that contained the test compound or a vehicle control (0.1% DMSO) and incubated at 37 °C for 3 min under continuous stirring. Aggregation was triggered by adding collagen (final concentration: 1.6 µg/mL). Platelet activity was monitored for 6 min. Multiplate V2.04 software calculated the area under the curve (AUC) for each measurement to determine average platelet response.

With `[H]/N=C(\N)NN=Cc1c(Cl)cncc1Cl` [JP-14, (E)-2-((3,5-Dichloropyridin-4-yl)Methylene)Hydrazine-1-Carboximidamide] the “glucose-stimulating effect under TAAR1 blockade” value (HepG2 cells; 10 µM + RTI-7470-44 (40 nM)) was “substantially attenuated”, the “increase in glucose consumption (uptake)” value (HepG2 cells; 10 µM, relative to vehicle-treated cells) was 29% and the “cellular metabolic function, percentage relative to control (live cells)” value (HEPG2 cell line; Table S4, 0.1 μM) was 96%. For the same molecule, the “cellular metabolic function, percentage relative to control (live cells)” value (HEPG2 cell line; Table S4, 1 μM) was 101%, the “cellular metabolic function, percentage relative to control (live cells)” value (HEPG2 cell line; Table S4, 10 μM) was 95% and the “cellular metabolic function, percentage relative to control (live cells)” value (HEPG2 cell line; Table S4, 50 μM) was 71%. For the same molecule, the “cellular metabolic function, percentage relative to control (live cells)” value (HEPG2 cell line; Table S4, 100 μM) was 60%, the “effect on steatosis under TAAR1 blockade” value (3T3-L1 adipocytes; 10 µM + RTI-7470-44 (40 nM)) was “abolished” and the “steatosis (neutral lipid accumulation)” value (3T3-L1 adipocytes; 10 µM, vs vehicle) was “statistically significant decrease”. The “α1 Ki” value (α1-adrenoceptor) was “did not exhibit notable affinity” and the “effect on collagen-induced platelet aggregation” value [1] was “did not alter; also recorded: did not influence”.
